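Five concentrations, 48 hours, 96-well plates. Here, GI50 denotes the concentration required for 50% inhibition of growth. TGI: total growth inhibition.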
What was measured:
Assay in all cases: inhibition of tumour cell growth, NCI panel, 48 h
A498 renal = tested on: A498 renal
OVCAR-4 ovarian = tested on: OVCAR-4 ovarian
UACC-257 melanoma = tested on: UACC-257 melanoma
LOX IMVI melanoma = tested on: LOX IMVI melanoma
CAKI-1 renal = tested on: CAKI-1 renal
NCI-H522 lung = tested on: NCI-H522 lung
KM12 colon = tested on: KM12 colon
SK-OV-3 ovarian = tested on: SK-OV-3 ovarian
COLO 205 colon = tested on: COLO 205 colon
IGROV1 ovarian = tested on: IGROV1 ovarian

Structure (SMILES)	TGI (A498 renal) [µM]	TGI (OVCAR-4 ovarian) [µM]	TGI (UACC-257 melanoma) [µM]	TGI (LOX IMVI melanoma) [µM]	TGI (CAKI-1 renal) [µM]	GI50 (A498 renal) [µM]	GI50 (OVCAR-4 ovarian) [µM]	GI50 (NCI-H522 lung) [µM]	TGI (NCI-H522 lung) [µM]	GI50 (UACC-257 melanoma) [µM]	GI50 (LOX IMVI melanoma) [µM]	GI50 (KM12 colon) [µM]	TGI (KM12 colon) [µM]	GI50 (SK-OV-3 ovarian) [µM]	TGI (SK-OV-3 ovarian) [µM]	GI50 (COLO 205 colon) [µM]	TGI (COLO 205 colon) [µM]	GI50 (IGROV1 ovarian) [µM]	TGI (IGROV1 ovarian) [µM]	GI50 (CAKI-1 renal) [µM]
CCCCCCCCC(O)C#CC(N)=O (configuration not stated)	31	12	26.9	24	32.3															
O=C(O)c1ccc([S-])cc1.[Au+].c1ccc(CN2[CH-]N(Cc3ccccc3)C(c3ccccc3)=C2c2ccccc2)cc1	0.954	1.3	1.2	1.37		0.246	0.373	0.285	1.2	0.283	0.311	0.513	1.82	0.352	1.39	0.269	0.824	0.541	2.15	
COc1cc([C@H]2c3cc4c(cc3[C@H](NCc3ccc([N+](=O)[O-])cc3)C3COC(=O)[C@H]32)OCO4)cc(OC)c1O (some centres not stated)	2.67	> 100	> 81.8	9.81	4.58								11.4		> 24.6		> 43.9		> 61.3	
O=C(/C=C/c1cccc([N+](=O)[O-])c1)c1ccc(O)c(CN2CCN(c3cc4c(cc3F)c(=O)c(C(=O)O)cn4C3CC3)CC2)c1	2.84	3.07	3.35	1.41	3.24	1.35	1.61			1.69	0.364	1.33	3.4	5	> 100					1.63
COc1ccc(SC2c3ccc(C)cc3Oc3nc(N)c(C#N)c(N)c32)cc1 (configuration not stated)	3.44	3.15	3.49	3.11		1.91	1.66			1.99	1.6	1.61	3.05	1.78	3.17					
O=c1cc(-c2ccccc2)[nH]c2c(Cl)cccc12	91.6	66.3	> 100	> 100													> 100		> 100	
COc1ccc(OC)c(NCC#N)c1	> 100	> 100	> 100	> 100					> 100				> 100		> 100		> 100		> 100	
CSc1nc(SC)c2c(C(N)=S)[nH]nc2n1	71.7	55.8	52.5	62.7	56.5								> 100		70.5		35.7		94.4	
COc1ccc2nc(NCN3C(=O)c4ccccc4C3=O)sc2c1	> 100	> 100	> 100	> 100					> 100				> 100		> 100		> 100		> 100	
O=[P+](O)c1cc2ccccc2c2ccccc12		> 100		> 100					> 100				> 100		> 100		> 100		> 100	
O=C1C2CC=CCC2C(=O)C12CCc1ccccc12 (configuration not stated)		> 100		> 100	> 100										> 100		> 100		> 100	
CC1(C)N=C(N)N=C(N)N1c1ccc(CCc2ccc(Cl)cc2S(=O)(=O)F)c(Cl)c1	> 100	84.5	27.5	20.6	> 100	62.8	9.09			9.6	4.04	4.63	17.6	19.1	> 100	10.4	24	0.942	> 100	> 100
O=c1nc(NC(c2ccccc2)(c2ccccc2)c2ccccc2)ccn1CCO	> 100	> 100	> 100	> 100					> 100				> 100				> 100		> 100	
O=C1[C@H]2ON(c3ccccc3)C(c3ccccc3F)[C@H]2C(=O)N1c1ccc(Cc2ccc(N3C(=O)[C@@H]4ON(c5ccccc5)C(c5ccccc5F)[C@@H]4C3=O)cc2)cc1 (some centres not stated)	> 100	> 100	> 100	> 100	> 100								> 100		> 100		> 100		> 100	
COC(=O)c1ccc(NC(=O)c2cc(OC)c(OC)c(OC)c2)cc1	> 100	> 100		> 100					3.58				> 100		98.4				> 100	
CCCCOC(=O)c1ccc(NC(=O)CCl)cc1	28.6		8.66	2.35		14.1		1.74	3.57	3.05	1.03	2.07	4.52	10.5	22.6			1.6	4.34	
C/C(CC(=O)Nc1ccc(Cl)cc1)=N\NC(=O)C[n+]1ccccc1			> 100	> 100					> 100				> 100		> 100		> 100		> 100	
